Experimental data published in the NIST ThermoML archive (doi:10.1021/je8006937).
Where “and” joins values, the source holds several entries; their conditions need not be identical. Equal values may be shown once.

Settings: Liquid, Pendant drop shape

CCOCCOCCOS(=O)(=O)[O-].CCn1cc[n+](C)c1 [1-ethyl-3-methylimidazolium 2-(2-ethoxyethoxy)ethylsulfate] + O=C=O
Settings | interfacial tension
280.25 K, 100 kPa | 36.7 mN/m and 37.3 mN/m
280.26 K, 1170 kPa | 30.3 mN/m
280.26 K, 2340 kPa | 22.6 mN/m
280.26 K, 3340 kPa | 15.5 mN/m
280.28 K, 3950 kPa | 9.8 mN/m
280.4 K, 4240 kPa | 6.3 mN/m
280.46 K, 5230 kPa | 6.6 mN/m
280.46 K, 7030 kPa | 6 mN/m
280.49 K, 8960 kPa | 5.8 mN/m
280.51 K, 10860 kPa | 5.4 mN/m
280.53 K, 12970 kPa | 5.4 mN/m
280.54 K, 15110 kPa | 5.1 mN/m
280.55 K, 17290 kPa | 5.1 mN/m
280.58 K, 20670 kPa | 4.7 mN/m
299.4 K, 100 kPa | 36.2 mN/m
299.43 K, 4810 kPa | 14.9 mN/m
299.43 K, 14740 kPa | 6.6 mN/m
299.45 K, 16390 kPa | 6.4 mN/m
299.46 K, 17880 kPa | 6.2 mN/m
299.47 K, 6680 kPa | 8.6 mN/m
299.48 K, 20360 kPa | 6 mN/m
299.53 K, 10230 kPa | 7.6 mN/m
299.54 K, 12350 kPa | 6.8 mN/m
299.55 K, 8330 kPa | 7.9 mN/m
319.74 K, 2000 kPa | 28.5 mN/m
319.74 K, 3090 kPa | 25.1 mN/m
319.74 K, 4040 kPa | 22.2 mN/m
319.75 K, 100 kPa | 35.5 mN/m and 35.4 mN/m
319.75 K, 1010 kPa | 31.5 mN/m
319.75 K, 5010 kPa | 19.4 mN/m
319.76 K, 5950 kPa | 16.5 mN/m
319.76 K, 8950 kPa | 7.6 mN/m
319.78 K, 7260 kPa | 13.1 mN/m
319.87 K, 10740 kPa | 9.8 mN/m
319.87 K, 12430 kPa | 8.9 mN/m
319.95 K, 14470 kPa | 8.4 mN/m
319.98 K, 17410 kPa | 7.8 mN/m
320.03 K, 20790 kPa | 7.7 mN/m

CCCCn1cc[n+](C)c1.CCOCCOCCOS(=O)(=O)[O-] [1-butyl-3-methylimidazolium 2-(2-ethoxyethoxy)ethylsulfate] + O=C=O
Settings | interfacial tension [mN/m]
281.3 K, 1960 kPa | 23
281.3 K, 3680 kPa | 10.8
281.31 K, 100 kPa | 34.5
281.31 K, 3150 kPa | 15.1
281.32 K, 1110 kPa | 28.2
281.48 K, 4300 kPa | 4.6
281.58 K, 5100 kPa | 4.5
281.58 K, 6970 kPa | 4.5
281.61 K, 9890 kPa | 4
281.61 K, 13700 kPa | 3.8
281.63 K, 17000 kPa | 3.7
281.63 K, 19930 kPa | 3.5
281.69 K, 100 kPa | 34.3
281.69 K, 1490 kPa | 25.4
281.7 K, 600 kPa | 30.6
281.7 K, 2830 kPa | 17.3
281.7 K, 4160 kPa | 6.5
281.84 K, 4340 kPa | 4.9
281.86 K, 12130 kPa | 4.4
281.87 K, 5900 kPa | 4.7
281.91 K, 18060 kPa | 3.7
295.14 K, 100 kPa | 34
295.2 K, 100 kPa | 34.2
295.3 K, 1030 kPa | 29.3
295.39 K, 1980 kPa | 25
295.5 K, 3350 kPa | 18.8
295.8 K, 3950 kPa | 16.3
296.03 K, 4960 kPa | 12.4
296.29 K, 6150 kPa | 12.8
296.31 K, 6630 kPa | 5.8
296.35 K, 8190 kPa | 5.6
296.42 K, 10120 kPa | 5.2
296.5 K, 14370 kPa | 4.8
296.53 K, 17640 kPa | 4.5
319.53 K, 100 kPa | 33.3
319.57 K, 2130 kPa | 27.7
319.58 K, 1030 kPa | 30.4
319.58 K, 3610 kPa | 23.6
319.59 K, 5010 kPa | 19.5
319.6 K, 6190 kPa | 16.4
319.63 K, 7090 kPa | 14
319.69 K, 8100 kPa | 12.3
319.71 K, 9070 kPa | 7.7
319.78 K, 10070 kPa | 7.9
319.78 K, 11080 kPa | 8
319.79 K, 11720 kPa | 7.9
319.85 K, 14840 kPa | 7.6
319.91 K, 17840 kPa | 7.1
319.94 K, 20870 kPa | 6.7
